ChEMBL document CHEMBL3396992, “Synthesis and biological evaluation of pyrazolylthiazole carboxylic acids as potent anti-inflammatory-antimicrobial agents” (2015)
Values after ≈ are worked out from the molar mass of the structure shown. Active and inactive are the calls of the source. The calls are words filed in the database; no cut-off is given here.

Assays:
Rattus norvegicus [1] = assay: Antiinflammatory activity against carrageenan-induced paw edema male Wistar albino rat assessed as edema volume at 50 mg/kg, ip administered 30 mins prior to carrageenan-challenge measured after 4 hrs (reference value: 1.88 +/- 0.20 mL); assay type: functional; conditions: route intraperitoneal
Saccharomyces cerevisiae [2] = assay: Antimicrobial activity against Saccharomyces cerevisiae MTCC 170 assessed as growth inhibition after 24 hrs by agar well diffusion method; assay type: functional
Escherichia coli = assay: Antimicrobial activity against Escherichia coli MTCC 1652 assessed as growth inhibition at 4 mg/ml after 24 hrs by agar well diffusion method; assay type: functional, organism-based
Rattus norvegicus [3] = assay: Antiinflammatory activity against carrageenan-induced paw edema male Wistar albino rat at 50 mg/kg, ip administered 30 mins prior to carrageenan-challenge measured after 3 hrs relative to control; assay type: functional; conditions: route intraperitoneal
Bacillus subtilis [4] = assay: Antimicrobial activity against Bacillus subtilis MTCC 121 assessed as growth inhibition after 24 hrs by agar well diffusion method; assay type: functional
Candida albicans [5] = assay: Antimicrobial activity against Candida albicans MTCC 3017 assessed as growth inhibition after 24 hrs by agar well diffusion method; assay type: functional; conditions: MTCC 3017, 24 h
Staphylococcus aureus [6] = assay: Antimicrobial activity against Staphylococcus aureus MTCC 96 assessed as growth inhibition after 24 hrs by agar well diffusion method; assay type: functional
Rattus norvegicus [7] = assay: Antiinflammatory activity against carrageenan-induced paw edema male Wistar albino rat assessed as edema volume at 50 mg/kg, ip administered 30 mins prior to carrageenan-challenge measured after 2 hrs (reference value: 1.21 +/- 0.16 mL); assay type: functional; conditions: route intraperitoneal
Rattus norvegicus [8] = assay: Antiinflammatory activity against carrageenan-induced paw edema male Wistar albino rat assessed as edema volume at 50 mg/kg, ip administered 30 mins prior to carrageenan-challenge measured after 3 hrs (reference value: 1.73 +/- 0.09 mL); assay type: functional; conditions: route intraperitoneal
Rattus norvegicus [9] = assay: Antiinflammatory activity against carrageenan-induced paw edema male Wistar albino rat at 50 mg/kg, ip administered 30 mins prior to carrageenan-challenge measured after 2 hrs relative to control; assay type: functional; conditions: route intraperitoneal
Rattus norvegicus [10] = assay: Antiinflammatory activity against carrageenan-induced paw edema male Wistar albino rat assessed as edema volume at 50 mg/kg, po administered 30 mins prior to carrageenan-challenge measured after 1 hr (reference value: 1.11 +/- 0.12 mL); assay type: functional
Pseudomonas aeruginosa = conditions: MTCC 741, 4 mg/ml
Description: Antimicrobial activity against Pseudomonas aeruginosa MTCC 741 assessed as growth inhibition at 4 mg/ml after 24 hrs by agar well diffusion method

Bacillus subtilis [11] = assay: Antimicrobial activity against Bacillus subtilis MTCC 121 assessed as growth inhibition at 4 mg/ml after 24 hrs by agar well diffusion method; assay type: functional; conditions: for zone of inhibition at 4000 µg/mL: MTCC 121, 24 h, read-out: DIZ
Rattus norvegicus [12] = assay: Antiinflammatory activity against carrageenan-induced paw edema male Wistar albino rat at 50 mg/kg, ip administered 30 mins prior to carrageenan-challenge measured after 1 hr relative to control; assay type: functional; conditions: route intraperitoneal
Rattus norvegicus [13] = assay: Antiinflammatory activity against carrageenan-induced paw edema male Wistar albino rat at 50 mg/kg, ip administered 30 mins prior to carrageenan-challenge measured after 4 hrs relative to control; assay type: functional; conditions: route intraperitoneal
Candida albicans [14] = assay: Antimicrobial activity against Candida albicans MTCC 3017 assessed as growth inhibition at 4 mg/ml after 24 hrs by agar well diffusion method; assay type: functional; conditions: MTCC 3017, 24 h, read-out: DIZ
Staphylococcus aureus [15] = assay: Antimicrobial activity against Staphylococcus aureus MTCC 96 assessed as growth inhibition at 4 mg/ml after 24 hrs by agar well diffusion method; assay type: functional; conditions: for zone of inhibition at 4000 µg/mL: MTCC 96, 24 h, read-out: DIZ
Saccharomyces cerevisiae [16] = assay: Antimicrobial activity against Saccharomyces cerevisiae MTCC 170 assessed as growth inhibition at 4 mg/ml after 24 hrs by agar well diffusion method; assay type: functional; conditions: for zone of inhibition at 4000 µg/mL: MTCC 170, 24 h, read-out: DIZ

Row | Structure (SMILES) | Activity (Rattus norvegicus [1]) [mL] | MIC (Saccharomyces cerevisiae [2]) | diameter of the inhibition zone (DIZ) (Escherichia coli) | Activity (Rattus norvegicus [3]) [%] | MIC (Bacillus subtilis [4]; MTCC 121, 24 h) [µg/mL] | MIC (Candida albicans [5]) [µg/mL] | MIC (Staphylococcus aureus [6]) | Activity (Rattus norvegicus [7]) [mL] | Activity (Rattus norvegicus [8]) [mL] | Activity (Rattus norvegicus [9]) [%] | Activity (Rattus norvegicus [10]) [mL] | DIZ (Pseudomonas aeruginosa) | zone of inhibition at 4000 µg/mL (Bacillus subtilis [11]) [mm] | Activity (Rattus norvegicus [12]) [%] | Activity (Rattus norvegicus [13]) [%] | zone of inhibition at 4000 µg/mL (Candida albicans [14]) [mm] | diameter of the inhibition zone (DIZ) (Staphylococcus aureus [15]) | diameter of the inhibition zone (DIZ) (Saccharomyces cerevisiae [16]) | MIC (Staphylococcus aureus [6]; MTCC 96, 24 h) [µg/mL] | zone of inhibition at 4000 µg/mL (Staphylococcus aureus [15]) [mm] | also measured
1 | CCOC(=O)c1sc(-c2cn(-c3ccccc3)nc2-c2ccc(OC)cc2)nc1-c1ccccc1 | 0.24 | inactive | inactive | 80.92 | 50 (≈ 104 µM) | 25 (≈ 51.9 µM) | inactive | 0.2 | 0.33 | 83.47 | 0.11 | inactive | 15 | 90.19 | 90.95 | 18.3 | inactive | inactive | – | – | –
2 | O=C(O)c1sc(-c2cn(-c3ccccc3)nc2-c2ccc(F)cc2)nc1-c1ccc(F)cc1 | 0.47 | – | inactive | 64.73 | 50 (≈ 109 µM) | 25 (≈ 54.4 µM) | – | 0.57 | 0.61 | 52.89 | 0.23 | inactive | 17.6 | 79.27 | 75 | 19.6 | – | – | 50 (≈ 109 µM) | 15.3 | MIC (Saccharomyces cerevisiae [2]; MTCC 170, 24 h): 25 µg/mL (≈ 54.4 µM); zone of inhibition at 4000 µg/mL (Saccharomyces cerevisiae [16]): 17.6 mm
3 | CCOC(=O)c1sc(-c2cn(-c3ccccc3)nc2-c2ccc(Cl)cc2)nc1-c1ccc(OC)cc1 | 0.21 | inactive | inactive | 85.54 | 50 (≈ 96.9 µM) | 50 (≈ 96.9 µM) | inactive | 0.35 | 0.25 | 71.07 | 0.1 | inactive | 15.3 | 90.99 | 88.92 | 15.3 | inactive | inactive | – | – | –
4 | CCOC(=O)c1sc(-c2cn(-c3ccccc3)nc2-c2ccccc2)nc1-c1ccccc1 | 0.24 | inactive | inactive | 83.81 | 50 (≈ 111 µM) | 50 (≈ 111 µM) | – | 0.3 | 0.28 | 75.2 | 0.1 | inactive | 11 | 90.99 | 87.23 | 15.3 | – | inactive | 50 (≈ 111 µM) | 14.3 | –
5 | CCOC(=O)c1sc(-c2cn(-c3ccccc3)nc2-c2ccccc2)nc1-c1ccc(Cl)cc1 | 0.22 | inactive | inactive | 87.23 | – | 50 (≈ 103 µM) | inactive | 0.15 | 0.24 | 87.6 | 0.22 | inactive | – | 80.18 | 87.23 | 17.3 | inactive | inactive | – | – | MIC (Bacillus subtilis [4]): inactive; diameter of the inhibition zone (DIZ) (Bacillus subtilis [11]): inactive
6 | CCOC(=O)c1sc(-c2cn(-c3ccccc3)nc2-c2ccc(F)cc2)nc1-c1ccccc1 | 0.45 | inactive | inactive | 80.92 | – | 50 (≈ 106 µM) | inactive | 0.32 | 0.33 | 73.55 | 0.26 | inactive | – | 76.57 | 76.06 | 16.6 | inactive | inactive | – | – | MIC (Bacillus subtilis [4]): inactive; diameter of the inhibition zone (DIZ) (Bacillus subtilis [11]): inactive
7 | CCOC(=O)c1sc(-c2cn(-c3ccccc3)nc2-c2ccc(F)cc2)nc1-c1ccc(Cl)cc1 | 0.26 | inactive | inactive | 80.34 | – | 50 (≈ 99.2 µM) | inactive | 0.22 | 0.34 | 81.81 | 0.17 | inactive | – | 84.68 | 86.17 | 17.6 | inactive | inactive | – | – | MIC (Bacillus subtilis [4]): inactive; diameter of the inhibition zone (DIZ) (Bacillus subtilis [11]): inactive
8 | CCOC(=O)c1sc(-c2cn(-c3ccccc3)nc2-c2ccc(F)cc2)nc1-c1ccc(OC)cc1 | 0.32 | inactive | inactive | 77.45 | 50 (≈ 100 µM) | 50 (≈ 100 µM) | inactive | 0.27 | 0.39 | 79.33 | 0.22 | inactive | 13.3 | 80.18 | 82.97 | 15.6 | inactive | inactive | – | – | –
9 | COc1ccc(-c2nn(-c3ccccc3)cc2-c2nc(-c3ccc(OC)cc3)c(C(=O)O)s2)cc1 | 0.19 | – | inactive | 88.43 | 50 (≈ 103 µM) | 50 (≈ 103 µM) | – | 0.24 | 0.2 | 86.77 | 0.13 | inactive | 16.3 | 82.88 | 89.89 | 13 | – | – | 50 (≈ 103 µM) | 16.3 | MIC (Saccharomyces cerevisiae [2]; MTCC 170, 24 h): 50 µg/mL (≈ 103 µM); zone of inhibition at 4000 µg/mL (Saccharomyces cerevisiae [16]): 13.3 mm
